Source: paper PMC10622577, “Structural basis for stabilisation of the RAD51 nucleoprotein filament by BRCA2” (Nature Communications, 2023)

Key:
RAD51 [1] = assay: SPR Kd estimation of TR2 for wild-type and mutant RAD51; type: binding, human; conditions: no binding saturation, large confidence intervals, statistically unreliable, no numbers given
Description: (§1) All binding experiments were performed in CMA buffer: 25 mM HEPES pH 7.4, 100 mM NaCl, 2 mM DTT, 2 mM ATP, 5 mM CaCl2, 5 mM MgCl2. 1 μM RAD51 (wild-type, D184A or D184A, D187A mutant proteins) was injected for 120 seconds followed by buffer for 120 seconds at a flow rate of 10 μl/min. TR2 or BRC4 peptides were then injected in a concentration titration series of 0.1, 0.25, 0.5, 0.75, 1, 2, 3, 5, 7.5, 10 and 15 μM for 120 seconds at a flow rate of […] followed by a dissociation time of 240 seconds. After each injection of BRCA2 peptide, the sensor chip was regenerated with buffer comprising of CMA buffer with 1 M NaCl for 120 seconds at a flow rate of 100 μl/min. All experiments were performed in triplicate.
(§2) For the BRCA2 TR2 titration series, blank-subtracted sensorgrams were used to extract the maximum response accumulated after each TR2 injection. TR2 response accumulation was corrected to account for differences in RAD51 filament formation between runs, by multiplying the maximum response by a scale factor calculated as the ratio between mean RAD51 filament accumulation on each DNA substrate and the mean RAD51 accumulated for each mutant for each triplicate. […]
(§3) consequently the need to inject the TR2 peptide at high concentrations (>30 uM), which would change sample viscosity and affect the refractive index for detection. The Kd values that we obtained based on the measured […]

RAD51 [2] = biological target: T1, RAD51 (Homo sapiens, UniProt Q06609); assay: as above; type: binding; conditions: saturation not achieved, would need >30 uM TR2
T1 construct: made in house; host or cells: E. coli BL21(DE3)Rosetta2
T1 sequence (Q06609 2-339): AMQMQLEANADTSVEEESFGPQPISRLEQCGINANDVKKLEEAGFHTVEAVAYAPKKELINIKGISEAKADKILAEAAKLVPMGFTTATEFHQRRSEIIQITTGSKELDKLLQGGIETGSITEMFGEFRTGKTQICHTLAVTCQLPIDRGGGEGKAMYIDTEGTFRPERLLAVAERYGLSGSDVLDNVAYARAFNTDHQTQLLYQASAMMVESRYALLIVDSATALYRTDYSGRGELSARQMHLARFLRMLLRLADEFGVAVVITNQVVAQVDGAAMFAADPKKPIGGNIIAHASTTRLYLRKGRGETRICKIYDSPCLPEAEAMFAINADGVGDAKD
Description: as §1, §2, §3

Sequence: DDQKNCKKRRALDFLSRLPLPPPVSPICTFVSPAAQKAFQPPRSCGTKY [TR2, BRCA2 TR2 peptide spanning amino acids 3260 to 3308]
- Kd trend, wild-type versus mutant RAD51 (RAD51 [1]): KdwtRAD51 < KdmutRAD51
- affinity of TR2 for RAD51 (RAD51 [2]): relatively low affinity
